Assay: Accelerated stability tests (storage at 40° C. and 75% Relative Humidity, HPLC analysis)
Format: physicochemical
Settings: for Degradation in accelerated stability tests: high temperature and humidity conditions, periods of up to six months (summary statement); for Stability (degradation by HPLC) at the end of one month of storage / Stability (degradation by HPLC) at the end of six months of storage: solid in two-ply polythene bags, 40° C., 75% Relative Humidity, HPLC vs time of packaging
Protocol: Accelerated Stability Tests Samples of paroxetine maleate Form A and Form B were packaged in two-ply polythene bags and stored at 40° C. and 75% Relative Humidity. The samples were analyzed at the time of packaging by HPLC and were analyzed with the same technique at the end of one month and six months of storage.

| Degradation in accelerated stability tests | Stability (degradation by HPLC) at the end of one month of storage | Stability (degradation by HPLC) at the end of six months of storage | Compound |
| --- | --- | --- | --- |
| notable degradation | clear signs of degradation | high degree of degradation | Fc1ccc([C@@H]2CCNC[C@H]2COc2ccc3c(c2)OCO3)cc1.O=C(O)/C=C\C(=O)O [Form A, (3S-trans)-3-[(1,3-benzodioxol-5-yloxy)methyl]-4-(4-fluorophenyl)piperidine acid maleate] |
| absence of significant degradation | substantially unaltered | substantially unaltered | Fc1ccc([C@@H]2CCNC[C@H]2COc2ccc3c(c2)OCO3)cc1.O=C(O)/C=C\C(=O)O [Form B, (3S-trans)-3-[(1,3-benzodioxol-5-yloxy)methyl]-4-(4-fluorophenyl)piperidine acid maleate] |

— patent publication US6440459B1, “Paroxetine maleate polymorph and pharmaceutical compositions containing it” (Medichem, S.A., priority 1998, dated 2002)
